“Also recorded” adds a separate entry of the source.
Legend:
[1] = cited from earlier work
70 kDa PKC-λ/ι = molecular target: T1, 70 kDa PKC-λ/ι (Mus musculus, UniProt Q62074); assay: brain aPKC (PKC-λ/ι) phosphorylation/activity in mice; assay type: in vivo
T1 construct: insulin-sensitive 70 kDa PKC-λ/ι in brains of Het-MλKO mice; from tissue; host or cells: mouse brain homogenate
T1 sequence (Q62074 1-595): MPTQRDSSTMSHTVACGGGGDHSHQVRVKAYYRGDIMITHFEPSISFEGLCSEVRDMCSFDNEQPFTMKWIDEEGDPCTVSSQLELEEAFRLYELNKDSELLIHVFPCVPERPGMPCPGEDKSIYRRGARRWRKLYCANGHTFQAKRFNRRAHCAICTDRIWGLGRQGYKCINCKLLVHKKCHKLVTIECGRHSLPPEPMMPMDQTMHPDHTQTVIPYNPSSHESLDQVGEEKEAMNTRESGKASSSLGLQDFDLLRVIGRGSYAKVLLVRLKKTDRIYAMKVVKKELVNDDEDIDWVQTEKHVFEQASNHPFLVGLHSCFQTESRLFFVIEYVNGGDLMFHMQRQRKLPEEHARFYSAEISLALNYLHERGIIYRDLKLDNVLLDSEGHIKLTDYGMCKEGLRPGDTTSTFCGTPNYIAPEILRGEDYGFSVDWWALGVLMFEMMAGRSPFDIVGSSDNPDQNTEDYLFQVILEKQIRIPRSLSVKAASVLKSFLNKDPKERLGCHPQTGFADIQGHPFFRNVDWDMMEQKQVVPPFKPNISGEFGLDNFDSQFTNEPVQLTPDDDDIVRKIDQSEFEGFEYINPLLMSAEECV
Description: (§1) Mouse Studies. Brain samples were obtained from normal and insulin-resistant mice and monkeys used previously, and includes mice originally used in studies of insulin signaling and resistance in liver: (a) 4-6 month old C57Bl/6 mice used in studies of high-fat-feeding [USF Vivarium] [6]; 4-6 month-old male C57Bl/6 ob/ob and lean ob+ mice (Jackson Labs, Bar Harbor, Maine); and (c) 10-12 month-old C57Bl/6 Het-MλKO mice [USF Vivarium] [8]. […] Where indicated normal mice were given a single SC injection of saline or saline containing 1.5 mg/kg ICAPP to follow time-related alterations in brain signaling factors. Where indicated, mice were treated intraperitoneally (IP) with insulin (1 U/kg body weight) or vehicle 15-min before euthanization by administration of Xylazine/Ketamine, followed by whole body perfusion with phosphate-buffered saline and rapid removal of brain and other tissues.
(§2) Tissue Preparations. As described, mouse brains were hemisected sagittally, and one-half was frozen in liquid N2, stored at −80° C., and samples thereof were homogenized in buffer containing 0.25M sucrose, 20 mM Tris/HCl (pH, 7.5), 2 mmol/l EGTA, 2 mM EDTA, 1 mM phenlysulfonoylfluoride (PMSF), 20 μg/ml leupeptin, 10 μg/ml aprotinin, 2 mM Na4P2O7, 2 mM Na3VO4, 2 mM NaF, and 1 μM microcystin, and then supplemented with 1% TritonX-100, 0.6% Nonidet and 150 mM NaCl.
(§3) Western Analyses. As described, Western analyses were conducted with rabbit antisera or mouse monoclonal antibodies (mMab), using: anti-aPKC (Santa Cruz Biotechnologies, Santa Cruz, CA); anti-phospho-threonine-560/555-PKC-ζ/λ/ι (Invitrogen, Carlsbad, CA); anti-p-serine-256-FoxO1 and anti-FoxO1 (Abnova, Walnut, CA); anti-Akt (mMab), anti-phospho-serine-473-Akt, anti-phospho-serine-9-GSK3P anti-GSK313, anti-phospho-serine-253-FoxO3a, anti-FoxO3a, anti-phospho-serine-256-FoxO1, anti-phospho-serine-193-FoxO4; anti-FoxO1, anti-phospho-serine-2448-mTOR, anti-mTOR, anti-β-amyloid (anti-5-10 kDa-Aβ1-40/42) and anti-amyloid precursor protein (anti-120 kDa-APP) (Cell Signaling Technologies, Danvers, MA); and anti-phospho-serine-202-tau, anti-phospho-threonine-231-tau (Gene Tex, Irvine, CA). Samples from experimental groups were compared on the same blots, and routinely checked with loading controls. Note that: insulin-sensitive 70 kDa aPKC is largely PKC-ζ in mouse brain and orthologous PKC-ι (98% aa homology) in monkey and other primate brains; brain PKC-ζ exists largely as a 50 kDa moiety that, lacking a regulatory domain, is constitutively-active and unresponsive to insulin.
(§4) Where indicated, mice were randomly treated with insulin (1 unit/kg/bw i.p.) 15 min before being euthanized by administration of xylazine/ketamine, followed by whole-body perfusion with PBS and rapid removal of brain and other tissues.

aPKC [2] = assay: aPKC activity in LA1-5s neuroblastoma cells; assay type: cell-based, human
Akt [3] = assay: Akt activity in human hepatocytes; assay type: cell-based; conditions: normal human hepatocytes, 100 μM metformin, preliminary studies
Description: (§5) Relative values. Mean±SEM (N=4-8). Asterisks: *, P<0.05; **, P<0.01; ***, P<0.001.

[4] = test system: SREBP-1c, FAS, ACC, PEPCK, G6Pase, and PGC-1α; assay: expression of lipogenic and gluconeogenic enzymes in human hepatocytes; assay type: cell-based
Description: Relative values are Mean±SEM (N=4-8). Asterisks: *, P<0.05; **, P<0.01; ***, P<0.001. ANOVA.

β-secretase (BACE1) [5] = assay: β-secretase activity (BACE1) in LA1-5s neuroblastoma cells; assay type: cell-based, human; conditions: LA1-5s cells
Method: (§6) Relative bar values in panel a are mean±SEM of 6 determinations. Asterisks: *, P<0.05; **, P<0.01; ***, P<0.001 (ANOVA). Values in panel b are means of 2-4 determinations.
(§7) Shown here are Mean±SEM (N=4) values relative to the mean initial basal or insulin-stimulated level of indicated immunoreactive protein/peptide. Asterisks: *, P<0.05; **, P<0.01; ***, P<0.001 (ANOVA).
(§8) β-Secretase Activity (BACE1; beta-site APP-cleaving enzyme-1). β-Secretase was measured was measured using a kit from Thermo-Fisher.

phospho-thr-231-tau = phospho-thr-231-tau levels in LA1-5s neuroblastoma cells; assay type: cell-based, human; conditions: LA1-5s cells, metformin alone
Method: as §7, §3

aPKC [6] = assay: aPKC activity in human hepatocytes; assay type: cell-based; conditions: normal human hepatocytes, 100 μM metformin, preliminary studies
Description: as §5

Aβ1-40/42 [7] = assay: Aβ1-40/42 levels in LA1-5s neuroblastoma cells; assay type: cell-based, human; conditions: for effect on levels of Aβ1-40/42: LA1-5s cells
Method: as §6, §7, §3

Aβ1-40/42 [8] = assay: brain Aβ1-40/42 peptide levels in mice; assay type: in vivo, mouse; conditions: control mice, insulin 1 unit/kg i.p. 15 min
Description: as §1, §2, §3, §4

β-secretase (BACE1) [9] = assay: brain β-secretase activity (BACE1) in mice; assay type: in vivo, mouse; conditions: normal WT mice, insulin 1 U/kg i.p. 15 min
Description: Mouse Studies. Brain samples were obtained from normal and insulin-resistant mice and monkeys used previously, and includes mice originally used in studies of insulin signaling and resistance in liver: (a) 4-6 month old C57Bl/6 mice used in studies of high-fat-feeding [USF Vivarium] [6]; 4-6 month-old male C57Bl/6 ob/ob and lean ob+ mice (Jackson Labs, Bar Harbor, Maine); and (c) 10-12 month-old C57Bl/6 Het-MλKO mice [USF Vivarium] [8]. Males and females were comparably present in experimental groups, and sex didn't appreciably alter combined findings. Hepatic alterations, clinical characteristics and ameliorating effects of liver-selective aPKC inhibitors were reported previously. […] Where indicated, Het-MλKO were injected subcutaneously (SC) once daily for 8 days with saline or 1H-imidazole-4-carboxamide,5-amino]-(2,3-dihydroxy-4-[(phosphono-oxy)methyl]cyclopentane-[1R-(1a,2b,3b,4a)] (ICAPP) 0.4 mg/kg body weight) in saline, to inhibit hepatic aPKC, and thus diminish aPKC-dependent expression of hepatic gluconeogenic and lipogenic enzymes, and thereby reduce serum insulin levels to near-normal. Where indicated normal mice were given a single SC injection of saline or saline containing 1.5 mg/kg ICAPP to follow time-related alterations in brain signaling factors. Where indicated, mice were treated intraperitoneally (IP) with insulin (1 U/kg body weight) or vehicle 15-min before euthanization by administration of Xylazine/Ketamine, followed by whole body perfusion with phosphate-buffered saline and rapid removal of brain and other tissues.
as §2, §8

[10] = test system: Akt substrates, GSK3β and mTOR; assay: phosphorylation of Akt substrates in LA1-5s neuroblastoma cells; assay type: cell-based, human; conditions: 200 nM insulin
Method: as §6, §3

Akt [11] = assay: Akt activity in LA1-5s neuroblastoma cells; assay type: cell-based, human; conditions: 200 nM insulin
Method: as §6, §7, §3

Akt [12] = assay: brain Akt phosphorylation/activity in mice; assay type: in vivo, mouse; conditions: control mice, insulin 1 unit/kg i.p. 15 min
Description: as §1, §2, §3, §4

[13] = neuroblastoma cells, 200 nM insulin, 1 hour

O=C(O)CC([S-])C(=O)O.[Au+] (stereo not drawn) [ATM, aurothiomalate]
serum insulin levels / hyperinsulinemia ([1]; Het-MλKO mice, reported previously): fully/sufficiently improved; also recorded: reduced serum insulin levels to normal

NC(=O)c1ncn([C@@H]2C[C@H](CO)[C@@H](O)[C@H]2O)c1N [ICAP, reference compound]
hyperinsulinemia, with regard to hyperactivation of CNS Akt and aPKC ([1]; HFF and ob/ob mice, doses effective on hepatic aPKC, initial studies): did not improve hyperinsulinemia sufficiently | acute effects of insulin on CNS aPKC activity (70 kDa PKC-λ/ι; normal mice, doses employed in the initial studies): unable to diminish acute effects of insulin on CNS aPKC activity

CN(C)C(=N)N=C(N)N [metformin]
effect on aPKC activity (aPKC [2]; LA1-5s cells, metformin alone): increase | Akt activation and action (Akt [3]): impairments in Akt activation and action | SREBP-1c activity and expression of lipogenic enzymes ([4]; hepatocytes, metformin): increases in activity of SREBP-1c and SREBP-1c-dependent expression of lipogenic enzymes | gluconeogenic enzyme expression ([4]; normal human hepatocytes, 100 μM metformin, preliminary studies): increases in gluconeogenic enzyme expression | effect on β-secretase activity (β-secretase (BACE1) [5]; metformin alone): increase | effect on levels of phospho-thr-231-tau (phospho-thr-231-tau): increase | aPKC activity (aPKC [6]): increases in aPKC activity | effect on levels of Aβ1-40/42 (Aβ1-40/42 [7]; metformin alone): increase

insulin
brain Aβ1-40/42 peptide levels (Aβ1-40/42 [8]): increased | effect on aPKC activity (aPKC [2]; LA1-5s cells, 200 nM insulin, 24 hours): elicited increases | effect on aPKC activity (aPKC [2]; [13]): can increase | brain β-secretase activity (BACE1) (β-secretase (BACE1) [9]): accompanied by increases | effect on phosphorylation of Akt substrates, GSK3β and mTOR ([10]; LA1-5s cells, 24 hours): elicited increases | effect on Akt-dependent GSK3β and mTOR phosphorylation ([10]; neuroblastoma cells, 1 hour): can increase | effect on activity of β-secretase (β-secretase (BACE1) [5]; 200 nM insulin, 24 hours): elicited increases | effect on Akt activity (Akt [11]; LA1-5s cells, 24 hours): elicited increases | effect on Akt activity (Akt [11]; neuroblastoma cells, 1 hour): can increase | brain aPKC activity (70 kDa PKC-λ/ι; control mice, insulin 1 unit/kg i.p. 15 min): provoked increases | brain Akt activity (Akt [12]): provoked increases | effect on levels of Aβ1-40/42 (Aβ1-40/42 [7]; 200 nM insulin, 24 hours): elicited increases | effect on Aβ1-40/42 peptide levels (Aβ1-40/42 [7]; [13]): can increase

Source: patent publication US11865125B2, “APKC inhibitors and methods of treating a neurodegenerative disease or disorder” (UNIVERSITY OF SOUTH FLORIDA, priority 2016, dated 2024)
